Test results taken from ChEMBL document CHEMBL1201862, “PubChem BioAssay data set” (2004).
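Exposure lasted 48 hours, with cells grown in 96-well plates and compounds tested at five concentrations. GI50: concentration for 50% inhibition of growth.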 Activity calls are given as the source filed them. Cut-off read from the data, not from the text of the source: active = GI50 up to about 1.1 µM and inactive = higher.

Assays:
Assay in all cases: NCI-60 cell line screen, 48 h
UO-31 = system: UO-31
XF498 = system: XF498
OVCAR-4 = system: OVCAR-4
LXFL 529 = system: LXFL 529
IGROV-1 = system: IGROV-1
SF-295 = system: SF-295
SNB-75 = system: SNB-75
A498 = system: A498
SR = system: SR
OVCAR-5 = system: OVCAR-5
UACC-62 = system: UACC-62
RPMI-8226 = system: RPMI-8226
DMS-273 = system: DMS-273
U-251 = system: U-251
DMS-114 = system: DMS-114

Row | Structure (SMILES) | GI50 (UO-31) | GI50 (XF498) | GI50 (OVCAR-4) | GI50 (LXFL 529) | GI50 (IGROV-1) | GI50 (SF-295) | GI50 (SNB-75) | GI50 (A498) | GI50 (SR) | GI50 (OVCAR-5) | GI50 (UACC-62) | GI50 (RPMI-8226) | GI50 (DMS-273) | GI50 (U-251) | GI50 (DMS-114)
1 | O=C1C(=O)N(c2ccc(Cl)cc2Cl)C(=O)C(=O)C1c1nc2ccccc2o1 | > 100 µM (inactive) | > 100 µM (inactive) | > 100 µM (inactive) | > 100 µM (inactive) | > 100 µM (inactive) | > 100 µM (inactive) | > 100 µM (inactive) | > 100 µM (inactive) | > 100 µM (inactive) | > 100 µM (inactive) | > 100 µM (inactive) | > 100 µM (inactive) | > 100 µM (inactive) | > 100 µM (inactive) | 
2 | CC[N+](CC)(CC)Cc1cn(S(=O)(=O)c2ccccc2)c2ccccc12 | > 100 µM (inactive) | > 100 µM (inactive) | > 100 µM (inactive) |  | > 100 µM (inactive) | > 100 µM (inactive) | 40.7 µM (inactive) |  | > 100 µM (inactive) | > 100 µM (inactive) | > 100 µM (inactive) | > 100 µM (inactive) | > 100 µM (inactive) | > 100 µM (inactive) | > 100 µM (inactive)
3 | CCOC(=O)c1cnc2c(ccc3ncccc32)c1OCC | > 100 µM (inactive) |  | > 100 µM (inactive) | > 100 µM (inactive) | > 100 µM (inactive) |  | > 100 µM (inactive) | > 100 µM (inactive) | 70.6 µM (inactive) | > 100 µM (inactive) | > 100 µM (inactive) |  | > 100 µM (inactive) | > 100 µM (inactive) | > 100 µM (inactive)
4 | Cc1cc(=O)n2c(cc3cccccc32)n1 | > 100 µM (inactive) |  | > 100 µM (inactive) | > 100 µM (inactive) | > 100 µM (inactive) | > 100 µM (inactive) | > 100 µM (inactive) | > 100 µM (inactive) | > 100 µM (inactive) | > 100 µM (inactive) | > 100 µM (inactive) | > 100 µM (inactive) | > 100 µM (inactive) | > 100 µM (inactive) | 
5 | CN(C)c1ccc(C(C#N)NNC(=O)Cc2ccccc2)cc1 (stereo unspecified) | > 100 µM (inactive) |  | > 100 µM (inactive) | > 100 µM (inactive) | > 100 µM (inactive) | > 100 µM (inactive) | > 100 µM (inactive) |  | > 100 µM (inactive) | > 100 µM (inactive) | > 100 µM (inactive) | > 100 µM (inactive) | > 100 µM (inactive) | > 100 µM (inactive) | > 100 µM (inactive)
6 | COC(=O)C(C(=O)OC)C1CCCC(=O)C1 (stereo unspecified) | > 100 µM (inactive) | > 100 µM (inactive) | > 100 µM (inactive) | > 100 µM (inactive) | > 100 µM (inactive) | > 100 µM (inactive) | > 100 µM (inactive) | > 100 µM (inactive) | > 100 µM (inactive) | > 100 µM (inactive) | > 100 µM (inactive) | > 100 µM (inactive) | > 100 µM (inactive) | > 100 µM (inactive) | 
7 | CCOC(=O)c1ccc(NC(=O)SCCC(=O)O)cc1 | > 100 µM (inactive) |  |  | 69 µM (inactive) | 35.4 µM (inactive) | > 100 µM (inactive) | < 0.01 µM (active) | > 100 µM (inactive) | > 100 µM (inactive) | > 100 µM (inactive) | 39.5 µM (inactive) | > 100 µM (inactive) | > 100 µM (inactive) | > 100 µM (inactive) | > 100 µM (inactive)
8 | CCCCCCCCCCCCCC/C(C(=O)OC)=C(/O)C(=O)OCC | 23.6 µM (inactive) | 20.4 µM (inactive) | 58.9 µM (inactive) | 39.3 µM (inactive) | 30 µM (inactive) | 20.6 µM (inactive) | 33 µM (inactive) | 33.2 µM (inactive) |  | 27 µM (inactive) | 16.9 µM (inactive) | > 100 µM (inactive) | 94 µM (inactive) | 26.3 µM (inactive) | > 100 µM (inactive)
9 | O=C1C2=C(CC3C(C2)C3(Br)Br)C(=O)C2=C1CC1C(C2)C1(Br)Br (stereo unspecified) | > 100 µM (inactive) | > 100 µM (inactive) | > 100 µM (inactive) | > 100 µM (inactive) | > 100 µM (inactive) | > 100 µM (inactive) | > 100 µM (inactive) | > 100 µM (inactive) | > 100 µM (inactive) | > 100 µM (inactive) | > 100 µM (inactive) |  | > 100 µM (inactive) | > 100 µM (inactive) | 
10 | CC1=C(c2cc(C(=O)Nc3ccc(Cl)cc3)nc(S)n2)Sc2ccccc2N1 | > 100 µM (inactive) | > 100 µM (inactive) | > 100 µM (inactive) | > 100 µM (inactive) | > 100 µM (inactive) | > 100 µM (inactive) | > 100 µM (inactive) | > 100 µM (inactive) |  | > 100 µM (inactive) | > 100 µM (inactive) |  | > 100 µM (inactive) | > 100 µM (inactive) | > 100 µM (inactive)
11 | CCOC(=O)c1ccc(/N=N\c2ccc(N(CCC#N)CCC#N)cc2C)cc1 | > 100 µM (inactive) |  | > 100 µM (inactive) | 35.9 µM (inactive) | > 100 µM (inactive) | > 100 µM (inactive) |  | > 100 µM (inactive) |  | > 100 µM (inactive) | > 100 µM (inactive) | > 100 µM (inactive) | > 100 µM (inactive) | > 100 µM (inactive) | > 100 µM (inactive)
12 | O=C(NCCCN1CCN(CCCNC(=O)Nc2cc(Cl)ccc2Cl)CC1)Nc1cc(Cl)ccc1Cl | > 100 µM (inactive) | > 100 µM (inactive) | 34 µM (inactive) | 51.2 µM (inactive) | > 100 µM (inactive) | 49.3 µM (inactive) | 15 µM (inactive) |  |  | > 100 µM (inactive) | 64.7 µM (inactive) | 80 µM (inactive) | 22.3 µM (inactive) | 50.7 µM (inactive) | 38.5 µM (inactive)
13 | NC1=NCCC1(c1ccccc1)c1ccccn1 (stereo unspecified) |  | > 100 µM (inactive) | > 100 µM (inactive) | > 100 µM (inactive) | > 100 µM (inactive) | > 100 µM (inactive) | > 100 µM (inactive) | > 100 µM (inactive) |  | > 100 µM (inactive) | > 100 µM (inactive) | > 100 µM (inactive) | > 100 µM (inactive) | > 100 µM (inactive) | > 100 µM (inactive)
14 | Cc1cc([N+](=O)[O-])c(C)c2c1[nH]c1ccc(Cl)cc12 | > 100 µM (inactive) | > 100 µM (inactive) | > 100 µM (inactive) |  |  | > 100 µM (inactive) | > 100 µM (inactive) |  | 45.7 µM (inactive) | > 100 µM (inactive) |  | 50 µM (inactive) | 63.1 µM (inactive) |  | > 100 µM (inactive)
15 | O=C1NC2C(CCO)CC=C[C@H]2c2cc3c(cc21)OCO3 (stereo partly specified) | > 100 µM (inactive) |  |  | > 100 µM (inactive) | > 100 µM (inactive) | > 100 µM (inactive) | > 100 µM (inactive) |  | > 100 µM (inactive) |  | > 100 µM (inactive) | > 100 µM (inactive) | > 100 µM (inactive) | > 100 µM (inactive) | > 100 µM (inactive)
